Article PMC6018403 (Frontiers in Pharmacology, 2018)
Where two headings read alike, the source gives them in different places.

Assay: Multi-component pharmacokinetic study of GQD, GQD-GC and single herb extracts in rats (plasma, LC/MS/MS)
Type: in vivo, Sprague-Dawley rats
Method: Male Sprague-Dawley rats (220–250 g) were used for PK study, and the details were described in Supplemental Data. All procedures were in accordance with the National Institutes of Health Guide for the Care and Use of Laboratory Animals.
For PK study of GQD and its component herbs, rats were randomly divided into six groups (n = 10 for each group) before oral administration.
All blood samples were immediately centrifuged at 6,000 rpm (4°C) for 20 min to obtain plasma. The plasma samples were stored at −80°C.
A Finnigan TSQ Quantum triple quadrupole mass spectrometer was connected to a Surveyor HPLC via ESI interface (ThermoFisher). High purity nitrogen was used as the sheath and auxiliary gas; Ultra-high purity argon was used as the collision gas (1.5 mTorr). Q1 and Q3 quadrupoles were set at unit resolution. […] The column temperature was 40°C. The mobile phase consisted of acetonitrile containing 2% (v/v) methanol (A) and water containing 0.1% (v/v) formic acid (B). […] An aliquot of 5 μL was injected for analysis. UV spectra were obtained by scanning from 200 to 400 nm. The mass spectrometer was operated in the (+)-ESI mode. The optimized parameters were as follows: sheath gas (N2), 50 arb; auxiliary gas (N2), 5 arb; spray voltage, 4.0 kV; capillary temperature, 330°C; collision energy, see Table S1. Analytes were detected in the selected reaction monitoring (SRM) mode. Data were processed by Xcalibur 2.0.7 software (ThermoFisher).
LC/MS/MS calibration and quantitation data were processed with Xcalibur 2.0.7 software (ThermoFisher). The maximal plasma concentrations (Cmax) and their time of occurrence (Tmax) were obtained directly from the measured data. Other pharmacokinetic parameters were calculated by non-compartment or compartment models using WinNonlin® software (v6.1, Pharsight). Unless otherwise stated, results were expressed as the mean ± SD. Statistical significance in differences of the means was determined by Student's t–test, with a significance level of P < 0.05.
Herbal materials and extracts.
The four component herbs, Puerariae Lobatae Radix (Ge-Gen, GG), Scutellariae Radix (Huang-Qin, HQ), Coptidis Rhizoma (Huang-Lian, HL), and Glycyrrhizae Radix et Rhizoma Praeparata cum Melle (Gan-Cao, GC) were purchased from Tianheng Pharmacy. GQD was prepared by decocting the four component herbs […]
pre-extraction of Ge-Gen using 200 mL of water for 0.5 h. The decoctions were combined, filtered, and concentrated in vacuum at 50 °C. GQD-GC was prepared using the same procedure, except that Gan-Cao was removed from the formula. Final concentration of the GQD-GC extract was equivalent to 1.0 g of the crude drugs per mL. For single herb extracts, the herbs were decocted in 8-fold volume of water for […]
Final concentrations of the extracts were 1.0 g/mL for Ge-Gen, and 0.5 g/mL for Huang-Qin, Huang-Lian and […]
For pharmacokinetic study, Male Sprague-Dawley rats (220-250 g) were obtained from the Laboratory Animal Center of Peking University Health Science Center. The […]
The rats had free access to tap water and soy-free custom diet (Ke’ao Xieli Co.). All procedures were in accordance with the National Institutes of Health Guide for the Care and Use of Laboratory Animals […]
Experimental details for the PK study
1. Preparation of internal standard solution, calibration standard solutions, and quality control solutions […]
internal standard solution. Reference standard compounds were dissolved in the internal standard solution to prepare individual stock solutions (1.0 mg/mL). These […]
each compound. The standard solution was then serially diluted to obtain calibration […]
Quality control stock solutions were prepared at three concentration levels as high QC (HQC), middle QC (MQC), and low QC (LQC), based on linear ranges of the analytes.
2.1. Sample preparation for pharmacokinetic study
The calibration standard and quality control solutions for pharmacokinetic study were […]

[1] = male, Sprague-Dawley, rat, plasma, po, 3.54 g/kg, HQ (Huang-Qin) group: rats, oral extract 3.54 g/kg, plasma, read-out: AUClast
[2] = male, Sprague-Dawley, rat, plasma, po, 16.5 g/kg, GQD-GC group (GQD without Gan-Cao): rats, oral 16.5 g/kg, plasma, read-out: AUClast
[3] = male, Sprague-Dawley, rat, plasma, po, 18.9 g/kg, GQD group: rats, oral GQD extract 18.9 g/kg, plasma, read-out: AUClast
[4] = male, Sprague-Dawley, rat, plasma, po, 18.9 g/kg, GQD group: rats, oral GQD 18.9 g/kg (1.5-fold of clinical dosage), plasma, read-out: AUClast
[5] = male, Sprague-Dawley, rat, GQD group: rats, oral GQD extract 18.9 g/kg, plasma, read-out: Cmax
[6] = male, Sprague-Dawley, rat, GQD group: rats, oral GQD extract 18.9 g/kg, plasma, read-out: T1/2 (converted)
[7] = male, Sprague-Dawley, rat, GQD group: rats, oral GQD extract 18.9 g/kg, plasma, read-out: Tmax
[8] = male, Sprague-Dawley, rat, GQD-GC group (GQD without Gan-Cao): rats, oral 16.5 g/kg, plasma, read-out: Cmax
[9] = male, Sprague-Dawley, rat, GQD-GC group (GQD without Gan-Cao): rats, oral 16.5 g/kg, plasma, read-out: T1/2 (converted)
[10] = male, Sprague-Dawley, rat, GQD-GC group (GQD without Gan-Cao): rats, oral 16.5 g/kg, plasma, read-out: Tmax
[11] = male, Sprague-Dawley, rat, HQ (Huang-Qin) group: rats, oral extract 3.54 g/kg, plasma, read-out: Cmax
[12] = male, Sprague-Dawley, rat, HQ (Huang-Qin) group: rats, oral extract 3.54 g/kg, plasma, read-out: T1/2 (converted)
[13] = male, Sprague-Dawley, rat, HQ (Huang-Qin) group: rats, oral extract 3.54 g/kg, plasma, read-out: Tmax
[14] = male, Sprague-Dawley, rat, in vivo, po, 2.36 g/kg
[15] = male, Sprague-Dawley, rat, in vivo, po, 2.36 g/kg, AUClast
[16] = male, Sprague-Dawley, rat, in vivo, po, 18.9 g/kg
[17] = male, Sprague-Dawley, rat, in vivo, po, 18.9 g/kg, AUClast
[18] = male, Sprague-Dawley, rat, in vivo, po, 9.45 g/kg
[19] = male, Sprague-Dawley, rat, in vivo, po, 16.5 g/kg

SMILES	AUC(0-t) [1]	AUC(0-t) [2]	AUC(0-t) [3]	AUC(0-t) [4]	Cmax [5]	half-life [6]	Tmax [7]	Cmax [8]	half-life [9]	Tmax [10]	Cmax [11]	half-life [12]	Tmax [13]	Cmax [14]	Tmax [14]	AUC(0-t) [15]	Cmax [16]	Tmax [16]	half-life [16]	AUC(0-t) [17]	other results
O=C(O)[C@H]1O[C@@H](Oc2cc(O)c3c(=O)cc(-c4ccccc4)oc3c2O)[C@H](O)[C@@H](O)[C@@H]1O [Compound 14, norwogonin 7-O-glucuronide]	11000 ± 2530 ng·h/mL	6030 ± 272 ng·h/mL	5270 ± 987 ng·h/mL		379 ± 98.5 ng/mL	4.88 ± 2.87 h	7.05 ± 1.23 h	359 ± 34.3 ng/mL	4.28 ± 1.63 h	6.17 ± 8.34 h	547 ± 73.8 ng/mL	5.1 ± 0.33 h	7.36 ± 0.08 h								AUC(0-t) (male, Sprague-Dawley, rat, plasma, po, 3.54 g/kg, Huang-Qin group: rats, oral 3.54 g/kg, plasma, read-out: AUClast): 11000 ± 2530 ng·h/mL; decrease of Cmax in the GQD group compared with the Huang-Qin group (rats, oral, GQD vs Huang-Qin): at least 30%
O=C1C[C@@H](c2ccc(O)cc2)Oc2cc(O)ccc21 [Compound 29, liquiritigenin]														22.63 ± 0.22 ng/mL	1 ± 2.34 h	75.4 ± 81.1 ng·h/mL	27.4 ± 9.97 ng/mL	1 ± 0.93 h	11.2 ± 7.69 h	153 ± 9.34 ng·h/mL	half-life [14]: 9.84 ± 3.52 h
CC1(C)[C@@H](O)CC[C@]2(C)[C@H]3C(=O)C=C4[C@@H]5C[C@@](C)(C(=O)O)CC[C@]5(C)CC[C@@]4(C)[C@]3(C)CC[C@@H]12 [Compound 40, glycyrrhetinic acid]			8480 ± 1300 ng·h/mL			7.96 ± 2.56 h															Cmax (GQD group: rats, oral GQD extract 18.9 g/kg, plasma): 371.14 ± 66.69 ng/mL; AUC(0-t) (male, Sprague-Dawley, rat, plasma, po, 2.36 g/kg, GC (Gan-Cao) group: rats, oral extract 2.36 g/kg, plasma, read-out: AUClast): 9630 ± 778 ng·h/mL; Cmax (male, Sprague-Dawley, rat, GC (Gan-Cao) group: rats, oral extract 2.36 g/kg, plasma, read-out: Cmax): 359 ± 37.8 ng/mL; half-life (male, Sprague-Dawley, rat, GC (Gan-Cao) group: rats, oral extract 2.36 g/kg, plasma, read-out: T1/2 (converted)): 6.87 ± 2.47 h; Tmax (male, Sprague-Dawley, rat, GC (Gan-Cao) group: rats, oral extract 2.36 g/kg, plasma, read-out: Tmax): 13.4 ± 0.78 h
O=C1C[C@@H](c2ccc(O[C@@H]3O[C@H](CO)[C@@H](O)[C@H](O)[C@H]3O)cc2)Oc2cc(O)ccc21 [Compound 26, liquiritin]														18.6 ± 7.53 ng/mL	1.34 ± 3 h	237 ± 92.4 ng·h/mL	20.8 ± 1.86 ng/mL	2.5 ± 4.76 h	12.1 ± 1.16 h	> 300 ng·h/mL	T1/2 [14]: 7.84 ± 0.38 h; AUClast [16]: 416.94 ± 210.31 ng·h/mL; plasma concentrations, effect of GQD compared with Gan-Cao (rat, in vivo, po): improved
O=c1c(-c2ccc(O)cc2)coc2cc(O)ccc12 [Compound 3, daidzein]																	186 ± 36.2 ng/mL		6.23 ± 1.36 h	3050 ± 998 ng·h/mL	Cmax [18]: 188 ± 10.4 ng/mL; half-life [18]: 5.12 ± 0.87 h; AUC(0-t) (male, Sprague-Dawley, rat, in vivo, po, 9.45 g/kg, AUClast): 2640 ± 1150 ng·h/mL; Cmax [19]: 83.5 ± 3.23 ng/mL; half-life [19]: 4.28 ± 1.47 h; AUC(0-t) (male, Sprague-Dawley, rat, in vivo, po, 16.5 g/kg, AUClast): 674 ± 604 ng·h/mL; Tmax (male, Sprague-Dawley, rat, in vivo, GG (Ge-Gen) group: rats, oral extract 9.45 g/kg, plasma, read-out: Tmax): 8 ± 0.14 h; Tmax (male, Sprague-Dawley, rat, in vivo, GQD group: rats, oral GQD extract 18.9 g/kg, plasma, read-out: Tmax): 8 ± 12.8 h; Tmax (male, Sprague-Dawley, rat, in vivo, GQD-GC group (GQD without Gan-Cao): rats, oral 16.5 g/kg, plasma, read-out: Tmax): 0.25 ± 0.32 h
CC1(C(=O)O)CCC2(C)CCC3(C)C(=CC(=O)C4C5(C)CCC(OC6OC(C(=O)O)C(O)C(O)C6OC6OC(C(=O)O)C(O)C(O)C6O)C(C)(CO)C5CCC43C)C2C1 (stereo not drawn) [Compound 35, licorice saponin G2]														8.98 ± 2.49 ng/mL	3.7 ± 1.41 h	81 ± 27.7 ng·h/mL	10.3 ± 6.38 ng/mL	3.89 ± 1.41 h	2.53 ± 0.14 h	102 ± 53.3 ng·h/mL	half-life [14]: 2.3 ± 6.79 h

Further lines, with some results ahead:

AUC(0-t) [1]	AUC(0-t) [2]	AUC(0-t) [3]	AUC(0-t) [4]	Cmax [5]	half-life [6]	Tmax [7]	Cmax [8]	half-life [9]	Tmax [10]	Cmax [11]	half-life [12]	Tmax [13]	Cmax [14]	Tmax [14]	AUC(0-t) [15]	Cmax [16]	Tmax [16]	half-life [16]	AUC(0-t) [17]	SMILES	other results
1170 ± 342 ng·h/mL	599 ± 215 ng·h/mL	700 ± 77 ng·h/mL	> 700 ng·h/mL	48.8 ± 3.88 ng/mL	4.33 ± 3.23 h	0.44 ± 3.87 h	59.4 ± 5.34 ng/mL	2.85 ± 0.54 h	0.34 ± 0.07 h	213 ± 34.3 ng/mL	1.58 ± 0.14 h	0.31 ± 0.03 h								COc1c(O)c(O[C@@H]2O[C@H](C(=O)O)[C@@H](O)[C@H](O)[C@H]2O)cc2oc(-c3ccccc3)cc(=O)c12 [Compound 38, lateriflorein 7-O-glucuronide]	
473 ± 34.3 ng·h/mL	156 ± 73.4 ng·h/mL	282 ± 11.3 ng·h/mL		12.9 ± 7.39 ng/mL	6.63 ± 2.38 h	7.89 ± 0.99 h	10.2 ± 6.81 ng/mL	5.64 ± 1.09 h	8 ± 2.12 h	38 ± 7.22 ng/mL	5.45 ± 1.22 h	8.02 ± 2.48 h								COc1c(O)cc(O)c2c(=O)cc(-c3ccccc3)oc12 [Compound 8, wogonin]	
	187 ± 129 ng·h/mL	500 ± 233 ng·h/mL	> 300 ng·h/mL	34.8 ± 34.2 ng/mL	5.73 ± 2.2 h	0.86 ± 0.15 h	24.1 ± 8.38 ng/mL	2.44 ± 1.45 h	0.74 ± 0.29 h											COc1ccc(-c2coc3cc(O[C@@H]4O[C@H](CO)[C@@H](O)[C@H](O)[C@H]4O)ccc3c2=O)cc1 [Compound 39, ononin]	AUC(0-t) (male, Sprague-Dawley, rat, plasma, po, 9.45 g/kg, GG (Ge-Gen) group: rats, oral extract 9.45 g/kg, plasma, read-out: AUClast): 139 ± 52.4 ng·h/mL; Cmax (male, Sprague-Dawley, rat, GG (Ge-Gen) group: rats, oral extract 9.45 g/kg, plasma, read-out: Cmax): 41.2 ± 11.4 ng/mL; half-life (male, Sprague-Dawley, rat, GG (Ge-Gen) group: rats, oral extract 9.45 g/kg, plasma, read-out: T1/2 (converted)): 1.21 ± 0.24 h; Tmax (male, Sprague-Dawley, rat, GG (Ge-Gen) group: rats, oral extract 9.45 g/kg, plasma, read-out: Tmax): 1.12 ± 0.29 h; bioavailability in the GQD group compared with the Ge-Gen group (rats, oral): higher
		37.9 ± 29.9 ng·h/mL	37.9 ± 29.9 ng·h/mL	7.47 ± 8.1 ng/mL	11.3 ± 3.38 h	2 ± 1.24 h														COc1c(CC=C(C)C)c(O)cc2oc(=O)c(-c3ccc(O)cc3O)cc12 [Compound 30, glycycoumarin]	AUC (Gan-Cao group: rats, oral 2.36 g/kg, plasma): not detected; plasma concentrations, effect of GQD compared with Gan-Cao (rats, oral): improved
